Reference: ChEMBL document CHEMBL3994565 (Medchemcomm, 2016)

Legend:
[1] = Antiviral activity against Influenza A virus (A/WSN/33(H1N1)) infected in MDCK cells assessed as inhibition of virus-induced cytopathic effect at 100 uM incubated for 40 hrs by CellTiter-Glo assay; assay type: functional, Influenza A virus (A/WSN/1933(H1N1))
[2] = Cytotoxicity against MDCK cells assessed as cell viability at 100 uM after 40 hrs by CellTiter-Glo assay relative to control; assay type: cell-based, Canis lupus familiaris; conditions: dog, read-out: Activity
[3] = Selectivity index, ratio of CC50 against uninfected MDCK cells to IC50 against Influenza A virus (A/WSN/33(H1N1)) infected MDCK cells; assay type: toxicity, cell-based; conditions: dog; read-out: Ratio CC50/IC50
[4] = Cytotoxicity against MDCK cells assessed as decrease in cell viability after 40 hrs by CellTiter-Glo assay; assay type: cell-based, Canis lupus familiaris; conditions: dog
[5] = Antiviral activity against Influenza A virus (A/WSN/33(H1N1)) infected in MDCK cells assessed as inhibition of virus-induced cytopathic effect incubated for 40 hrs by CellTiter-Glo assay; assay type: functional, cell-based, Influenza A virus (A/WSN/1933(H1N1))

SMILES	inhibition at 100 µM [1] [%]	viability at 40 h, 100 µM [2] [%]	selectivity ratio [3]	CC50 at 40 h [4] [µM]	IC50 [5] [µM]
COC(=O)[C@@]1(n2cc(CNC(=O)[C@]34CCC(C)(C)C[C@@H]3C3=CC[C@@H]5[C@@]6(C)CC[C@H](O)C(C)(C)[C@@H]6CC[C@@]5(C)[C@]3(C)C[C@H]4O)nn2)C[C@H](O)[C@@H](NC(C)=O)[C@H]([C@H](O)[C@H](O)CO)O1	-3.6	104	–	–	–
COC(=O)[C@@]1(OCCOC(=O)[C@]23CCC(C)(C)C[C@@H]2C2=CC[C@@H]4[C@@]5(C)CC[C@H](O)C(C)(C)[C@@H]5CC[C@@]4(C)[C@]2(C)C[C@H]3O)C[C@H](O)[C@@H](NC(C)=O)[C@H]([C@H](O)[C@H](O)CO)O1	-11.8	99.8	–	–	–
COC(=O)[C@@]1(OCCOC(=O)[C@]23CC[C@@H](C)[C@H](C)[C@@H]2C2=CC[C@@H]4[C@@]5(C)CC[C@H](O)C(C)(C)[C@@H]5CC[C@@]4(C)[C@]2(C)CC3)C[C@H](O)[C@@H](NC(C)=O)[C@H]([C@H](O)[C@H](O)CO)O1	–	0.1	–	–	–
COC(=O)[C@@]1(OCCn2cc(CNC(=O)[C@]34CC[C@@H](C)[C@H](C)[C@@H]3C3=CC[C@@H]5[C@@]6(C)CC[C@H](O)C(C)(C)[C@@H]6CC[C@@]5(C)[C@]3(C)CC4)nn2)C[C@H](O)[C@@H](NC(C)=O)[C@H]([C@H](O)[C@H](O)CO)O1	–	20.1	–	–	–
COC(=O)[C@@]1(OCCOC(=O)[C@]23CCC(C)(C)C[C@@H]2C2=CC[C@@H]4[C@@]5(C)CC[C@H](O)C(C)(C)[C@@H]5CC[C@@]4(C)[C@]2(C)CC3)C[C@H](O)[C@@H](NC(C)=O)[C@H]([C@H](O)[C@H](O)CO)O1	16.4	82.4	–	–	–
COC(=O)[C@@]1(n2cc(CNC(=O)[C@]34CCC(C)(C)C[C@@H]3C3=CC[C@@H]5[C@@]6(C)CC[C@H](O)C(C)(C)[C@@H]6CC[C@@]5(C)[C@]3(C)CC4)nn2)C[C@H](O)[C@@H](NC(C)=O)[C@H]([C@H](O)[C@H](O)CO)O1	-4.6	106	–	–	–
COC(=O)[C@@]1(OCCn2cc(CNC(=O)[C@]34CC[C@@H](C)[C@H](C)[C@@H]3C3=CC[C@@H]5[C@@]6(C)CC[C@H](O)C(C)(C)[C@@H]6CC[C@@]5(C)[C@]3(C)CC4)nn2)C[C@H](OC(C)=O)[C@@H](NC(C)=O)[C@H]([C@H](OC(C)=O)[C@@H](COC(C)=O)OC(C)=O)O1	–	3.3	–	–	–
C=C(C)[C@@H]1CC[C@]2(C(=O)NCc3cn(CCO[C@]4(C(=O)OC)C[C@H](OC(C)=O)[C@@H](NC(C)=O)[C@H]([C@H](OC(C)=O)[C@@H](COC(C)=O)OC(C)=O)O4)nn3)CC[C@]3(C)[C@H](CC[C@@H]4[C@@]5(C)CC[C@H](O)C(C)(C)[C@@H]5CC[C@]43C)[C@@H]12	67.6	105	> 6.3	> 500	78.3
COC(=O)[C@@]1(OCCOC(=O)[C@]23CCC(C)(C)C[C@@H]2C2=CC[C@@H]4[C@@]5(C)CC[C@H](O)C(C)(C)[C@@H]5CC[C@@]4(C)[C@]2(C)C[C@H]3O)C[C@H](OC(C)=O)[C@@H](NC(C)=O)[C@H]([C@H](OC(C)=O)[C@@H](COC(C)=O)OC(C)=O)O1	31.2	84.5	–	–	–
COC(=O)[C@@]1(n2cc(CNC(=O)[C@]34CCC(C)(C)C[C@@H]3C3=CC[C@@H]5[C@@]6(C)CC[C@H](O)C(C)(C)[C@@H]6CC[C@@]5(C)[C@]3(C)CC4)nn2)C[C@H](OC(C)=O)[C@@H](NC(C)=O)[C@H]([C@H](OC(C)=O)[C@@H](COC(C)=O)OC(C)=O)O1	1.3	104	–	–	–
C[C@H]1[C@H](C)CC[C@]2(C(=O)O)CC[C@]3(C)C(=CC[C@@H]4[C@@]5(C)CC[C@H](O)C(C)(C)[C@@H]5CC[C@]43C)[C@H]12 [URSOLIC ACID]	–	0.4	–	–	–
COC(=O)[C@@]1(N=[N+]=[N-])C[C@H](OC(C)=O)[C@@H](NC(C)=O)[C@H]([C@H](OC(C)=O)[C@@H](COC(C)=O)OC(C)=O)O1	1	100	–	–	–
COC(=O)[C@@]1(n2cc(CNC(=O)[C@]34CC[C@@H](C)[C@H](C)[C@@H]3C3=CC[C@@H]5[C@@]6(C)CC[C@H](O)C(C)(C)[C@@H]6CC[C@@]5(C)[C@]3(C)CC4)nn2)C[C@H](O)[C@@H](NC(C)=O)[C@H]([C@H](O)[C@H](O)CO)O1	–	12.2	–	–	–
COC(=O)[C@@]1(OCCn2cc(CNC(=O)[C@]34CCC(C)(C)C[C@@H]3C3=CC[C@@H]5[C@@]6(C)CC[C@H](O)C(C)(C)[C@@H]6CC[C@@]5(C)[C@]3(C)C[C@H]4O)nn2)C[C@H](OC(C)=O)[C@@H](NC(C)=O)[C@H]([C@H](OC(C)=O)[C@@H](COC(C)=O)OC(C)=O)O1	15.3	105	–	–	–
CC1(C)CC[C@]2(C(=O)O)[C@H](O)C[C@]3(C)C(=CC[C@@H]4[C@@]5(C)CC[C@H](O)C(C)(C)[C@@H]5CC[C@]43C)[C@@H]2C1	–	40.1	–	–	–
C=C(C)[C@@H]1CC[C@]2(C(=O)NCc3cn([C@]4(C(=O)OC)C[C@H](OC(C)=O)[C@@H](NC(C)=O)[C@H]([C@H](OC(C)=O)[C@@H](COC(C)=O)OC(C)=O)O4)nn3)CC[C@]3(C)[C@H](CC[C@@H]4[C@@]5(C)CC[C@H](O)C(C)(C)[C@@H]5CC[C@]43C)[C@@H]12	16	100	–	–	–
COC(=O)[C@@]1(OCCN=[N+]=[N-])C[C@H](OC(C)=O)[C@@H](NC(C)=O)[C@H]([C@H](OC(C)=O)[C@@H](COC(C)=O)OC(C)=O)O1	4.3	100	–	–	–
COC(=O)[C@@]1(OCCOC(=O)[C@]23CCC(C)(C)C[C@@H]2C2=CC[C@@H]4[C@@]5(C)CC[C@H](O)C(C)(C)[C@@H]5CC[C@@]4(C)[C@]2(C)CC3)C[C@H](OC(C)=O)[C@@H](NC(C)=O)[C@H]([C@H](OC(C)=O)[C@@H](COC(C)=O)OC(C)=O)O1	18.7	90.1	–	–	–
CC1(C)CC[C@]2(C(=O)O)CC[C@]3(C)C(=CC[C@@H]4[C@@]5(C)CC[C@H](O)C(C)(C)[C@@H]5CC[C@]43C)[C@@H]2C1 [OLEANOLIC_ACID]	–	60.9	–	–	–
COC(=O)[C@@]1(OCCOC(=O)[C@]23CC[C@@H](C)[C@H](C)[C@@H]2C2=CC[C@@H]4[C@@]5(C)CC[C@H](O)C(C)(C)[C@@H]5CC[C@@]4(C)[C@]2(C)CC3)C[C@H](OC(C)=O)[C@@H](NC(C)=O)[C@H]([C@H](OC(C)=O)[C@@H](COC(C)=O)OC(C)=O)O1	–	0.2	–	–	–
COC(=O)[C@@]1(OCCI)C[C@H](OC(C)=O)[C@@H](NC(C)=O)[C@H]([C@H](OC(C)=O)[C@@H](COC(C)=O)OC(C)=O)O1	6.3	103	–	–	–
COC(=O)[C@@]1(OCCn2cc(CNC(=O)[C@]34CCC(C)(C)C[C@@H]3C3=CC[C@@H]5[C@@]6(C)CC[C@H](O)C(C)(C)[C@@H]6CC[C@@]5(C)[C@]3(C)CC4)nn2)C[C@H](O)[C@@H](NC(C)=O)[C@H]([C@H](O)[C@H](O)CO)O1	6.7	107	–	–	–
C=C(C)[C@@H]1CC[C@]2(C(=O)NCc3cn(CCO[C@]4(C(=O)OC)C[C@H](O)[C@@H](NC(C)=O)[C@H]([C@H](O)[C@H](O)CO)O4)nn3)CC[C@]3(C)[C@H](CC[C@@H]4[C@@]5(C)CC[C@H](O)C(C)(C)[C@@H]5CC[C@]43C)[C@@H]12	12.2	104	–	–	–
COC(=O)[C@@]1(OCCn2cc(CNC(=O)[C@]34CCC(C)(C)C[C@@H]3C3=CC[C@@H]5[C@@]6(C)CC[C@H](O)C(C)(C)[C@@H]6CC[C@@]5(C)[C@]3(C)CC4)nn2)C[C@H](OC(C)=O)[C@@H](NC(C)=O)[C@H]([C@H](OC(C)=O)[C@@H](COC(C)=O)OC(C)=O)O1	57.8	97.1	> 5.2	> 500	95.2
C=C(C)[C@@H]1CC[C@]2(C(=O)NCc3cn([C@]4(C(=O)OC)C[C@H](O)[C@@H](NC(C)=O)[C@H]([C@H](O)[C@H](O)CO)O4)nn3)CC[C@]3(C)[C@H](CC[C@@H]4[C@@]5(C)CC[C@H](O)C(C)(C)[C@@H]5CC[C@]43C)[C@@H]12	-8.1	104	–	–	–
COC(=O)[C@@]1(n2cc(CNC(=O)[C@]34CCC(C)(C)C[C@@H]3C3=CC[C@@H]5[C@@]6(C)CC[C@H](O)C(C)(C)[C@@H]6CC[C@@]5(C)[C@]3(C)C[C@H]4O)nn2)C[C@H](OC(C)=O)[C@@H](NC(C)=O)[C@H]([C@H](OC(C)=O)[C@@H](COC(C)=O)OC(C)=O)O1	-5.2	103	–	–	–
COC(=O)[C@@]1(n2cc(CNC(=O)[C@]34CC[C@@H](C)[C@H](C)[C@@H]3C3=CC[C@@H]5[C@@]6(C)CC[C@H](O)C(C)(C)[C@@H]6CC[C@@]5(C)[C@]3(C)CC4)nn2)C[C@H](OC(C)=O)[C@@H](NC(C)=O)[C@H]([C@H](OC(C)=O)[C@@H](COC(C)=O)OC(C)=O)O1	–	2.5	–	–	–
COC(=O)[C@@]1(OCCn2cc(CNC(=O)[C@]34CCC(C)(C)C[C@@H]3C3=CC[C@@H]5[C@@]6(C)CC[C@H](O)C(C)(C)[C@@H]6CC[C@@]5(C)[C@]3(C)C[C@H]4O)nn2)C[C@H](O)[C@@H](NC(C)=O)[C@H]([C@H](O)[C@H](O)CO)O1	2.2	107	–	–	–
